Measurements as given in patent publication US7470821B2, “Aldolase-inhibiting aromatic compounds” (Valorisation-Recherche, Limited Partnership, priority 2003, dated 2008).
Like-named read-outs stand apart in the source and are kept apart here.

Columns and labels:
[1] = target: T1, rabbit muscle aldolase (Oryctolagus cuniculus, UniProt P00883); settings: cited from earlier work; for Ki: Blonski et al., 1997
T1 sequence (P00883 1-364): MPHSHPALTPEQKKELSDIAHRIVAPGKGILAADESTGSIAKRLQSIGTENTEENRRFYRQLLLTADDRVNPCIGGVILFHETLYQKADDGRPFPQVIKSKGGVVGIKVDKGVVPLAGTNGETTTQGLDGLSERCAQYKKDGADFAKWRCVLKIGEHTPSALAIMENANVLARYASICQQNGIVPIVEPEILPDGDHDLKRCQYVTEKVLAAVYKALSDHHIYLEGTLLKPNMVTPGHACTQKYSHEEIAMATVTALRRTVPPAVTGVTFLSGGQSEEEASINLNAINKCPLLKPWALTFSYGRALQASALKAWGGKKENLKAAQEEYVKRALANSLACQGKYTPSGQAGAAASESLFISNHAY

[2] = target: T2, native aldolase from rabbit muscle (RM) (Oryctolagus cuniculus, UniProt P00883); experiment: Aldolase activity by coupled enzyme test (TIM/GDH), inactivation and reactivation kinetics; format: biochemical
T2 construct: made in house
T2 sequence (P00883 1-364): T1 sequence (P00883 1-364)
Method: Aldolase activity was measured using a coupled enzyme test system: the triose-phosphate isomerase and glycerol-3-phosphate deshydrogenase (TIM/GDH) system, following oxidation of the NADH (Boehringer-Mannheim, France) at 340 nm, by means of a SAFAS spectrophotometer preheated to 25° C. Testing began with the addition of the substrate (Fru(1.6)P2; […] in final concentration), to complete an aldolase solution created in a triethanolamine buffer (TEA buffer) (100 Mm TEA/HCl; 50 mM NaCl; 1 mM EDTA, pH 7.6; ionic strength 0.15), 0.42 mM of NADH, and containing both enzyme systems (10 μg/mL of GDH and 1 μg/mL of TIM) for a final volume of 1 mL. The construction, overexpression and purification of recombinant aldolase were carried out in accordance with Morris A. J. et al., 1993 (J. Biol. Chem., 265:1095-1100) and Berthiaume L. et al., 1993 (J. Biol. Chem., 268:10826-10835).
The substrate cleavage rate was determined by measuring the decrease in absorbance/minute at 340 nm. The aldolase was dialyzed overnight at 4° C. against a TEA buffer prior to use. The protein concentration was determined by spectrophotometry, using ε280=0.91 mL.mg^−1.cm^−1 as an extinction coefficient. Subunit concentration was determined on the basis of a molecular weight of 159,000 for an aldolase tetramer. • Kinetic Method:
In the extreme situation where k−2 approaches zero, a reversible slow-binding inhibitor may resemble an irreversible one directed toward the active site. In this situation, the equation eqn.(3) is used for this type of inhibition (Meloche H. P., 1967, Biochemistry, 6:2273-2280). The semi-inactivation time of the enzyme (t1/2) is defined as a function of the mutual inhibitor concentration and is graphically represented by a straight line crossing the Y-axis at […] and crossing the X-axis at −1/Ki. • Experimental Protocol:
Native aldolase (5 μM of subunits) is incubated in the presence of FHN-P (0.05-1 mM) in TEA buffer. Enzyme activity is analyzed as a function of time using 10 μl aliquot portions.
Inactivation kinetics follow pseudo-first-order kinetics, and kinetic parameters Ki and k2 are determined by using the equation eqn.(3). To determine the reactivation rate, aldolase (25 μM of subunits in the TEA buffer) is incubated with 500 μM of FHN-P until reaching 90% inactivation. Excess inhibitor is removed by ultrafiltration with a PM-30 Millipore membrane. The enzyme-inhibitor complex is incubated in the TEA buffer (15 μM of subunits at final concentration) containing hexitol-P2 (10 mM). Aliquot portions (10 μl) are removed at different times to measure aldolase activity.
Controls involve repeating the protocol without FHN-P. The reactivation process is analyzed as if it were a first-order reaction. • Monitored by UV-Visible Differential Spectroscopy.

[3] = rabbit muscle aldolase, read-out: dissociation constant (or inhibition constant) Ki

O=P(O)(O)Oc1cccc(OP(=O)(O)O)c1 [RSN-P2]
Ki [1, 3]: ~50 µM

O=Cc1ccc(OP(=O)(O)O)cc1O [2-hydroxybenzaldehyde-4-phosphate]
reduction of aldolase activity ([1]; inhibitor concentration of around 200 μM): 80%
Ki ([1]; reversible time-dependent inhibitor, read-out: global inhibition constant Ki*): 35 ± 5 µM

O=P(O)(O)Oc1ccc(OP(=O)(O)O)cc1 [HQN-P2]
Ki [1, 3]: ~135 µM

O=Cc1ccc(OP(=O)(O)O)cc1 [HBA-P, benzaldehyde-4-phosphate]
Ki [1, 3]: ~500 µM

O=Cc1ccc2cc(O)ccc2c1O [DHNA, 1,6-dihydroxy-2-naphthaldehyde, reference compound]
aldolase inactivation (in words) ([2]; 250 μM, same conditions as Table 1): totally inactive
Specific activity ([2]; RM 0.2 mg/mL, compound 250 μM, TEA buffer pH 7.6, 80 min incubation, RM alone 12.5 ± 0.5): 12.5 ± 0.5 Unit/mg
